For orientation: melting point means the temperature of the solid-liquid transition.

Drawing on patent US9181188B2, “Aryl ureas as kinase inhibitors” (Bayer Healthcare LLC, priority 2002, dated 2015), this text covers melting point for one molecule.

In turn, `CNC(=O)c1cc(Oc2ccc(NC(=O)Nc3ccc(Cl)c(C(F)(F)F)c3)cc2)cc[n+]1[O-]` [Example 1, N-[4-chloro-3-(trifluoromethyl)phenyl]-N′-{4-[2-(N-methylcarbamoyl)-1-oxo-(4-pyridyloxy)]phenyl}urea] returned a melting point of 232 to 234 °C.
